Read-outs that look alike come from different tables or passages of the source.
Key:
[1] = system: HCV genotype 1b Con1 strain subgenomic luciferase replicon (Zluc); assay: Luciferase replicon assay, genotype 1b; type: cell-based; details: Hepatitis C virus
In short: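 Replicon-bearing Huh-7 cells (1×10^4 H1a-luc or 7.5×10^3 Zluc per well) dosed 3 h after plating with ten 5-fold compound dilutions, 72 h at 37 °C/5% CO2. Luciferase measured by ONE-glo luminescence; EC50 from dose-response fits, replicon-free Huh-7 as negative control.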

[2] = system: HCV genotype 1a H77 strain subgenomic luciferase replicon (H1a-luc); assay: Luciferase replicon assay, genotype 1a; type: cell-based; details: Hepatitis C virus, read-out: EC50 1a
In short: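 Huh-7 cells carrying H1a-luc subgenomic replicon (luciferase-neomycin phosphotransferase fusion), seeded at 1×10^4 cells/well, dosed 3 h later with ten 5-fold compound dilutions for 72 h at 37 °C. Replication read as luciferase luminescence; replicon-free Huh-7 cells as negative control. EC50 from dose-response curve fits.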

[3] = system: H1a-luc or Zluc cells; assay: in vitro; type: cell-based, human; details: Table 1B, cellular viability
In short: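 Cytotoxicity counter-screen in which the H1a-luc or Zluc cells were compound-treated and viability was read with the CellTiter 96 AQueous One (MTS) reagent by absorbance at 490 nm. CC50 values came from curve fitting.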

[4] = system: 1a-luc WT (HCV genotype 1a replicon); assay: Luciferase replicon transient transfection assay, 1a-luc WT; type: cell-based; details: Hepatitis C virus, 96 h, Huh7.5 cells, 4 days
Description: (§1) The luciferase replicon transient transfection assay measures the ability of a test compound to inhibit the replication of a transiently-transfected HCV luciferase-bearing wild-type or mutant replicon in cured human hepatoma cells (Huh7.5). The inhibition of HCV replication was measured by quantification of luciferase protein expression. This assay has been validated using a panel of genotype 1a and 1b replicons bearing mutations known to be associated with resistance to BMS-790052. Briefly, subconfluent Huh7.5 cells were electroporated with 10 μg of wild-type or mutant luciferase-bearing HCV replicon RNA. The cells were then seeded in 96-well opaque white plates at 3×10^4 cells/well in 150 μL/well and incubated for 4 hrs at 37° C./5% CO2. Ten 1:5 serial dilutions of each test compound were made in media (DMEM containing glucose, L-glutamine and sodium pyruvate, 10% fetal bovine serum, 100 IU/mL penicillin, 100 μg/mL streptomycin, 2 mM GlutaMAX, and 1×MEM non-essential amino acids (Mediatech, Inc. and Invitrogen Corp.)) at concentrations that were 4× higher than the final concentrations to be tested and 50 μL/well was added to the transfected cells. Untreated, mock-transfected cells served as a negative control of luciferase expression. The plates were incubated at 37° C./5% CO2 for 4 days whereupon the media was removed and 50 μL of ONE-glo luciferase substrate (Promega) was added to each well. The plates were agitated on a rotating platform at room temperature for 3 min and read in a Victor^3V microplate reader (Perkin-Elmer) using a 700 nm cut-off filter with a 1 sec read time. EC50 values were calculated from dose response curves from the resulting best-fit equations determined by Microsoft Excel and XLfit 4.1 software.

[5] = system: 1a-luc Q30E (HCV genotype 1a replicon); assay: Luciferase replicon transient transfection assay, 1a-luc Q30E; type: cell-based, hepatitis C virus; details: for EC50: Hepatitis C virus, 96 h, Huh7.5 cells, 4 days
Description: as §1

[6] = system: 1a-luc Q30H (HCV genotype 1a replicon); assay: Luciferase replicon transient transfection assay, 1a-luc Q30H; type: cell-based, hepatitis C virus; details: for EC50: Hepatitis C virus, 96 h, Huh7.5 cells, 4 days
Description: as §1

[7] = system: 1a-luc Y93C (HCV genotype 1a replicon); assay: Luciferase replicon transient transfection assay, 1a-luc Y93C; type: cell-based, hepatitis C virus; details: for EC50: Hepatitis C virus, 96 h, Huh7.5 cells, 4 days
Description: as §1

[8] = system: 1a-luc Y93H (HCV genotype 1a replicon); assay: Luciferase replicon transient transfection assay, 1a-luc Y93H; type: cell-based, hepatitis C virus; details: for EC50: Hepatitis C virus, 96 h, Huh7.5 cells, 4 days
Description: as §1

[9] = system: 1a-luc Y93N (HCV genotype 1a replicon); assay: Luciferase replicon transient transfection assay, 1a-luc Y93N; type: cell-based, hepatitis C virus; details: for EC50: Hepatitis C virus, 96 h, Huh7.5 cells, 4 days
Description: as §1

[10] = system: ZS11-luc WT (HCV genotype 1b replicon); assay: Luciferase replicon transient transfection assay, ZS11-luc WT; type: cell-based, hepatitis C virus; details: for Ratio: ZS11-luc (Table 1I); for EC50: genotype 1b, ZS11-luc WT, Huh7.5 cells, 4 days
Description: as §1

[11] = system: ZS11-luc L31M (HCV genotype 1b replicon); assay: Luciferase replicon transient transfection assay, ZS11-luc L31M; type: cell-based, hepatitis C virus; details: for EC50: Hepatitis C virus, 96 h, Huh7.5 cells, 4 days
Description: as §1

[12] = system: ZS11-luc L31V (HCV genotype 1b replicon); assay: Luciferase replicon transient transfection assay, ZS11-luc L31V; type: cell-based, hepatitis C virus; details: for EC50: Hepatitis C virus, 96 h, Huh7.5 cells, 4 days
Description: as §1

[13] = system: ZS11-luc Y93C (HCV genotype 1b replicon); assay: Luciferase replicon transient transfection assay, ZS11-luc Y93C; type: cell-based, hepatitis C virus; details: for EC50: Hepatitis C virus, 96 h, Huh7.5 cells, 4 days
Description: as §1

[14] = system: ZS11-luc Y93H (HCV genotype 1b replicon); assay: Luciferase replicon transient transfection assay, ZS11-luc Y93H; type: cell-based, hepatitis C virus; details: for EC50: Hepatitis C virus, 96 h, Huh7.5 cells, 4 days
Description: as §1

[15] = Hepatitis C virus, Huh7.5, 96 h

## COC(=O)N[C@H](C(=O)N1CCC[C@H]1c1ncc(-c2ccc(-c3csc4c(-c5cnc([C@@H]6CCCN6C(=O)[C@@H](NC(=O)OC)C(C)C)[nH]5)csc34)cc2)[nH]1)C(C)C [Compound A15, [(S)-1-((S)-2-{4-[4-(6-{2-[(S)-1-((S)-2-methoxycarbonylamino-3-methyl-butyryl)-pyrrolidin-2-yl]-3H-imidazol-4-yl}-thieno[3,2-b]thiophen-3-yl)-phenyl]-1H-imidazol-2-yl}-pyrrolidine-1-carbonyl)-2-methyl-propyl]-carbamic acid methyl ester]
[1]
  EC50: < 0.1 nM
[2]; genotype 1a
  EC50: < 0.1 nM

## COC(=O)N[C@H](C(=O)N1CCC[C@H]1c1ncc(-c2ccc(-c3csc4c(-c5ccc6[nH]c([C@@H]7CCCN7C(=O)[C@H](NC(=O)OC)c7ccccc7)nc6c5)csc34)cc2)[nH]1)C(C)C [Compound A172, [(S)-1-((S)-2-{5-[4-(6-{(S)-2-[1-((R)-2-Methoxycarbonylamino-2-phenyl-acetyl)-pyrrolidin-2-yl]-3H-benzoimidazol-5-yl}-thieno[3,2-b]thiophen-3-yl)-phenyl]-1H-imidazol-2-yl}-pyrrolidine-1-carbonyl)-2-methyl-propyl]-carbamic acid methyl ester]
[1]
  EC50: < 0.1 nM
[2]
  EC50: < 0.1 nM
[3]
  CC50: > 75000 nM
[4]
  EC50: 0.004 nM
[5]
  Ratio: 423
  EC50: 2 nM
[6]
  Ratio: 21
  EC50: 0.08 nM
[7]
  Ratio: 96
  EC50: 0.4 nM
[8]
  Ratio: 5427
  EC50: 21 nM
[9]
  Ratio: 22,328
  EC50: 81 nM
[10]
  Ratio: 1
[11]
  Ratio: 3
  EC50: 0.01 nM
[12]
  Ratio: 9
  EC50: 0.04 nM
[13]
  Ratio: 2
  EC50: 0.01 nM
[14]
  Ratio: 56
  EC50: 0.3 nM

## COC(=O)N[C@H](C(=O)N1CCC[C@H]1c1nc2cc(-c3csc4c(-c5ccc(-c6cnc([C@@H]7CCCN7C(=O)[C@H](NC(=O)OC)c7ccccc7)[nH]6)cc5)csc34)ccc2[nH]1)C(C)C [Compound A169, [(S)-1-((S)-2-{6-[6-(4-{(S)-2-[1-((R)-2-methoxycarbonylamino-2-phenyl-acetyl)-pyrrolidin-2-yl]-3H-imidazol-4-yl}-phenyl)-thieno[3,2-b]thiophen-3-yl]-1H-benzoimidazol-2-yl}-pyrrolidine-1-carbonyl)-2-methyl-propyl]-carbamic acid methyl ester]
[1]
  EC50: < 0.1 nM
[2]
  EC50: < 0.1 nM
[3]
  CC50: > 75000 nM
[4]
  EC50: 0.002 nM
[5]
  Ratio: 422
  EC50: 0.9 nM
[6]
  Ratio: 24
  EC50: 0.05 nM
[7]
  Ratio: 40
  EC50: 0.08 nM
[8]
  Ratio: 4428
  EC50: 9 nM
[9]
  Ratio: 14,363
  EC50: 30 nM
[10]; [15]
  EC50: 0.002 nM
[10]
  Ratio: 1
  EC50: 0.0017 nM
[11]
  Ratio: 4
  EC50: 0.009 nM
[12]
  Ratio: 14
  EC50: 0.03 nM
[13]
  Ratio: 3
  EC50: 0.006 nM
[14]
  Ratio: 82
  EC50: 0.2 nM

## COC(=O)N[C@H](C(=O)N1CCC[C@H]1c1ncc(-c2ccc(-c3csc4c(-c5cnc([C@@H]6CCCN6C(=O)[C@H](NC(=O)OC(C)(C)C)c6ccccc6)[nH]5)csc34)cc2)[nH]1)C(C)C [Compound A111, [(S)-1-((S)-2-{4-[4-(6-{(S)-2-[1-((R)-2-tert-butoxycarbonylamino-2-phenyl-acetyl)-pyrrolidin-2-yl]-3H-imidazol-4-yl}-thieno[3,2-b]thiophen-3-yl)-phenyl]-1H-imidazol-2-yl}-pyrrolidine-1-carbonyl)-2-methyl-propyl]-carbamic acid methyl ester]
[1]
  EC50: < 0.1 nM
[2]
  EC50: 0.1 to 1 nM
[3]
  CC50: > 75000 nM
[4]
  EC50: 0.04 nM
[5]
  Ratio: 957
  EC50: 47 nM
[6]
  EC50: 2 nM
[7]
  Ratio: 146
  EC50: 6 nM
[8]
  Ratio: >4859
  EC50: > 198 nM
[9]
  Ratio: >11,202
  EC50: > 454 nM
[10]; [15]
  EC50: 0.002 nM
[11]
  Ratio: 7
  EC50: 0.01 nM
[12]
  Ratio: 51
  EC50: 0.09 nM
[13]
  Ratio: 4
  EC50: 0.006 nM
[14]
  Ratio: 48
  EC50: 0.08 nM
